Test results published in patent EP0612472A1, “Herbicidal combinations comprising triazole derivatives (III)” (MONSANTO EUROPE S.A., priority 1993, dated 1994).

Test system: Galium aparine
Assay: field experiment, tank mix, Belgium
Format: in vivo
Description: A field experiment has been carried out during winter time (November 1990) in Belgium.
Application was made at 250 l/ha using standard spraying equipment (Backpack sprayer; Nozzles XR 11003). Randomised block design with 3 replicates was used. Unit plot size was 2 X 6m². The soil surface was moist. Total ground cover: 20% crop, 10% weeds and 70% bare ground.
The plant species tested and corresponding true leave stage are:
The herbicides tested are the herbicide A as described in Example 1 in tank mix with another phytohormone type of herbicide, that is mecoprop. 0.2% surfactant (Tween® 20) has been added to the tank.
The results in table 2 hereafter are presented as average values of three replications.

## Cc1cc(Cl)ccc1OC(C)C(=O)O (centres unmarked) [mecoprop]
RATE 1000 g a.i/ha
  control, GALAP 120 DAT: 73.3%
RATE 1200 g a.i/ha
  control, GALAP 120 DAT: 66.7%
